# Target: PIK3CG (human) (UniProt P48736)
# Assay: Assessment of PIK3CG Kinase Activity
# PIK3CG (human), sequence (P48736 whole entry, looked up): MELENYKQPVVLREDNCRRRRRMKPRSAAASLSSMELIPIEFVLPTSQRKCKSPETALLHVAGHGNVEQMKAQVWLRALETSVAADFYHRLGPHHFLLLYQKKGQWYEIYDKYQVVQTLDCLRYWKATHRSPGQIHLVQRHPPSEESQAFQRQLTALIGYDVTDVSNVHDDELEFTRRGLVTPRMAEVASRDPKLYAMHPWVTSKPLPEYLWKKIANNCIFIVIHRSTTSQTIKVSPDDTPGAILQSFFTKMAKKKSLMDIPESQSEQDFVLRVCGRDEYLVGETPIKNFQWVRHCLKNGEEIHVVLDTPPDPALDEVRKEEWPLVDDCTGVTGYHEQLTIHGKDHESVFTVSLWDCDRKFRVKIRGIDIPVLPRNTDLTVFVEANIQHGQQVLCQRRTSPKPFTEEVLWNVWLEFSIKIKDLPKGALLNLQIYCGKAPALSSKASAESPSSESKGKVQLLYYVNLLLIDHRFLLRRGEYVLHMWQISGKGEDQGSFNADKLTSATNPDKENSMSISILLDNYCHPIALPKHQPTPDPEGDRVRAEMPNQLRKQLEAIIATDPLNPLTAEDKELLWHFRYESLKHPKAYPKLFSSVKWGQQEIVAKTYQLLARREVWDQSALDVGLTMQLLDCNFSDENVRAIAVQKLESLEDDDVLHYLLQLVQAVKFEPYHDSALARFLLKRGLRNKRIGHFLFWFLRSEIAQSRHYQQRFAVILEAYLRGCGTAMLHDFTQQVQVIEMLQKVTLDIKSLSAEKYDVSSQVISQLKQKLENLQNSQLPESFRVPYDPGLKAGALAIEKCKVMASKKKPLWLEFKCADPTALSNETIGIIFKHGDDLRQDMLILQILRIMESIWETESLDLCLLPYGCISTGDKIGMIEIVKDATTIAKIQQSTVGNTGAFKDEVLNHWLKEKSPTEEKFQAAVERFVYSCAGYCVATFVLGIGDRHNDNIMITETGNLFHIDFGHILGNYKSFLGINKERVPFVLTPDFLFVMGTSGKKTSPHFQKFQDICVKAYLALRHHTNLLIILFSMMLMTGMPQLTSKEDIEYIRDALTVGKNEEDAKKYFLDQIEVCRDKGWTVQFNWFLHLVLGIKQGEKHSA
row,SMILES,IC50 [nM]
1,CC(C)N1CC(=O)N(C)c2cnc(Nc3cc(NC(=O)C(C)(C)c4ccccc4)cc(S(C)(=O)=O)c3)nc21,< 800
2,CC(C)N1CC(=O)N(C)c2cnc(Nc3cc(N(C)C(=O)NCc4ccccc4)cc(S(C)(=O)=O)c3)nc21,< 800
3,CC(C)N1CC(=O)N(C)c2cnc(Nc3cc(Nc4ccc(CN5CCN(C)CC5)cc4)cc(S(C)(=O)=O)c3)nc21,< 800
4,CC(C)N1CC(=O)N(C)c2cnc(Nc3cc(NC(=O)C[C@H]4CCNC4)cc(S(C)(=O)=O)c3)nc21,< 800
5,CC(C)N1CC(=O)N(C)c2cnc(Nc3cc(C#N)cc(S(C)(=O)=O)c3)nc21,< 800
6,Cc1cc(CC(=O)Nc2cc(Nc3ncc4c(n3)N(C(C)C)CC(=O)N4C)cc(S(C)(=O)=O)c2)on1,< 800
7,CC(C)N1CC(=O)N(C)c2cnc(Nc3cc(N(C)C(=O)N[C@H]4CCN(Cc5ccccc5)C4)cc(S(C)(=O)=O)c3)nc21,< 800
8,CC(C)N1CC(=O)N(C)c2cnc(Nc3cccc(S(=O)(=O)C(C)C)c3)nc21,< 800
9,CC(C)N1CC(=O)N(C)c2cnc(Nc3cc(NC(=O)[C@@H]4CCNC4)cc(S(C)(=O)=O)c3)nc21,< 800
10,CC(C)N1CC(=O)N(C)c2cnc(Nc3cc(NC(=O)Cc4ccccc4)cc(S(C)(=O)=O)c3)nc21,< 800

# Results, then the molecule that gave them:
row,IC50 [nM],SMILES
1,< 800,CC(C)N1CC(=O)N(C)c2cnc(Nc3cc(NC(=O)N[C@H]4CCN(C5CCOCC5)C4)cc(S(C)(=O)=O)c3)nc21
2,< 800,CC(C)N1CC(=O)N(C)c2cnc(Nc3cc(NC(=O)N[C@H]4CCN(C5CCCC5)C4)cc(S(N)(=O)=O)c3)nc21
3,< 800,CC(C)N1CC(=O)N(C)c2cnc(Nc3cc(NC(=O)N(C)C[C@@H]4CCCN4C4CCCC4)cc(S(C)(=O)=O)c3)nc21
4,< 800,CC(C)N1CC(=O)N(C)c2cnc(Nc3cc(NC(=O)NC[C@@H]4CCCN4C4CCCC4)cc(S(C)(=O)=O)c3)nc21
5,< 800,CC(C)N1CC(=O)N(C)c2cnc(Nc3cc(NC(=O)O[C@@H]4CCN(C5CCCC5)C4)cc(S(C)(=O)=O)c3)nc21

# Reference: the Kinase Knowledgebase extract (Sharma et al. 2016)
